Experimental data taken from patent publication US9732322B2, “Compositions for mesoderm derived ISL1+ multipotent cells (IMPs), epicardial progenitor cells (EPCs) and multipotent C56C cells (C56Cs) and methods of producing and using same” (UNIVERSITY OF GEORGIA RESEARCH FOUNDATION, INC., priority 2008, dated 2017).

Assays:
CXCR4 receptor = biological target: T1, CXCR4 receptor (Homo sapiens, UniProt P61073); test: Boyden chamber migration assay of C56C cells; assay type: cell-based
T1 construct: endogenous in cells; host or cells: C56C cells (CXCR4+ CD56+), differentiated from MMCs derived from human pluripotent stem cells
Experimental: FIG. 61. To investigate the mechanisms by which C56Cs migrate towards ischemic/damaged tissue we assayed these cells in a Boyden chamber assay. 300,000 C56C cells were seeded in the upper chamber of a Boyden chamber.
To investigate the mechanisms by which C56Cs migrate towards ischemic/damaged tissue we assayed these cells in a Boyden chamber assay. 300,000 C56C cells were seeded in the upper chamber of a Boyden chamber.

Isl1+ IMP (Spl-m) cells = test: Stage 2 differentiation of Isl1+ IMPs/Spl-m to Wt1+ epicardial progenitor (PE-like) cells; assay type: cell-based, human; details: for Erk activation in Isl1+ Spl-m: immunoblot, phospho-Erk1,2
Experimental: hESC/hFib2-iPS4 hiPSCs grown in StemPro defined media/defined media were differentiated into IMPs (as described above and elsewhere). At day 4, IMP cell stage, the defined media was supplemented with BMP4 (50 ng/ml, range about 2-100 ng/ml, R&D Systems), Wnt3a (25 ng/ml, range about 1-100+ng/ml, R&D Systems) and all-trans retinoic acid (4 μM, range about 0.25-25 μM Sigma), media changed every 2 (1-4 days) days, for about 10-16 days (about 7-25 days) (FIG. 39). The expression of Wt-1, Tbx18, Raldh2 and Tcf21 (epicardin) were confirmed by Q-PCR (FIGS. 40, 42) and Wt-1 by immunofluorescence (FIG. 41). This method typically gives cultures that are >80% positive for Wt1.
(§1) WA01, WA07, WA09, BG01 and BG02 hESCs and Fib-iPS4 hIPSCs^28 were adapted from mouse embryo fibroblast feeder-based culture conditions to feeder-free growth in chemically defined media (CDM) using single cell suspensions^50. Briefly, CDM is composed of DMEM/F12 (Mediatech), 2% probumin (Bovine Serum Albumin fraction V) biotech grade (Millipore), 1× nonessential amino acids, 50 U/mL penicillin, 50 μg/mL streptomycin, 1× trace elements A, B, C (all from Mediatech), 10 μg/mL transferrin, 0.1 mM […] (Gibco), 50 μg/mL ascorbic acid (Sigma), 8 ng/mL bFGF (Invitrogen), 200 ng/mL LR-IGF (Sigma), 10 ng/mL Activin A (R and D Systems) and 10 ng/mL […] (Peprotech). Cells were passaged every 4-5 d using Accutase (Innovative Cell Technologies) to form a single cell suspension and then plated onto plates coated with 1:200 Geltrex (Invitrogen) at a cell density of 7.5×10^4 cells/cm^2 at 37° C. in 5% CO2. Media was changed every 24 h. To differentiate hESC in Stage 1 (FIG. 62), cells were plated at a density of 5.1×10^4 cells/cm^2 into CDM containing 25 ng/mL rmWnt3a and 100 ng/mL rhBMP4 (R&D Systems). Cells were cultured at 37° C. in 5% CO2 and media changed every 24 h for 4-6 d. CDM for Stage 2 of differentiation was supplemented with 25 ng/mL rmWnt3a, 50 ng/mL rhBMP4 with either 100 ng/ml Fgf2 or 4 μM all-trans retinoic acid (Sigma), changing media every 48 h for 10-16 d. For Stage 3 differentiation, Stage 2 cells were passaged at day 16 into CDM without Activin A, supplemented with 10 ng/mL rhVEGF-A165 (R&D Systems). All bright field images were acquired on a Leica DMIL microscope.
Progenitor cells of the coronary vasculature are believed to reside in the PE and after forming the epicardium, seed the myocardium for future vessel formation. Many unanswered questions remain as to the characteristics of these progenitor cells but clearly, a better understanding of PE development will provide significant insight into this question. Lineage tracing studies in vivo indicate that PE and epicardium forms from an Isl1^+ Nkx2.5^+ progenitor^6, 18, 29. […]

[1] = tested on: hESC-derived Wt1+ PE cells (EPCs); test: Stage 3 differentiation of Wt1+ EPC/PE cells to smooth muscle and endothelial cells, immunostaining; assay type: cell-based, human; details: VEGF 10 ng/ml, 10 days
Experimental: WA01, WA07, WA09, BG01 and BG02 hESCs and Fib-iPS4 hIPSCs^28 were adapted from mouse embryo fibroblast feeder-based culture conditions to feeder-free growth in chemically defined media (CDM) using single cell suspensions^50. Briefly, CDM is composed of DMEM/F12 (Mediatech), 2% probumin (Bovine Serum Albumin fraction V) biotech grade (Millipore), 1× nonessential amino acids, 50 U/mL penicillin, 50 μg/mL streptomycin, 1× trace elements A, B, C (all from Mediatech), 10 μg/mL transferrin, 0.1 mM 3-mercaptoethanol (Gibco), 50 μg/mL ascorbic acid (Sigma), 8 ng/mL bFGF (Invitrogen), 200 ng/mL LR-IGF (Sigma), 10 ng/mL Activin A (R and D Systems) and 10 ng/mL Heregulin 13 (Peprotech). Cells were passaged every 4-5 d using Accutase (Innovative Cell Technologies) to form a single cell suspension and then plated onto plates coated with 1:200 Geltrex (Invitrogen) at a cell density of 7.5×10^4 cells/cm^2 at 37° C. in 5% CO2. Media was changed every 24 h. To differentiate hESC in Stage 1 (FIG. 62), cells were plated at a density of 5.1×10^4 cells/cm^2 into CDM containing 25 ng/mL rmWnt3a and 100 ng/mL rhBMP4 (R&D Systems). Cells were cultured at 37° C. in 5% CO2 and media changed every 24 h for 4-6 d. CDM for Stage 2 of differentiation was supplemented with 25 ng/mL rmWnt3a, 50 ng/mL rhBMP4 with either 100 ng/ml Fgf2 or 4 μM all-trans retinoic acid (Sigma), changing media every 48 h for 10-16 d. […]

WA09 hESCs = test: Stage 1 differentiation of WA09 hESCs to Isl1+ splanchnic mesoderm; Q-PCR, immunostaining, flow cytometry; assay type: cell-based, human; details: for differentiation / gene expression changes with single factor alone: data not shown
Experimental: as §1, with “To differentiate hESC in Stage 1 (FIG. 62), cells were plated at a density of 5.1×10^4 cells/cm^2 into CDM containing 25 ng/mL rmWnt3a and 100 ng/mL rhBMP4 (R&D Systems).” left out
Cells were collected as single cell suspensions following harvesting with Accutase and then analyzed using a Cyan flow cytometer (Dako). Cells were blocked with species-specific serum for 30 min followed by blocking with CD16/32 (eBiosciences) for a further 15 min then, with specific antibodies shown in FIG. 81, Table 4. Immunofluorescence was performed on 4% paraformaldehyde-fixed cells in the presence of 10% donkey serum and 0.25% Triton X100 followed by visualization using 2.5% donkey serum in PBS with fluorescent conjugated secondary antibodies. DAPI (Sigma) was used to counterstain nuclei. […]

c1cc(CN2CCCNCCNCCCNCC2)ccc1CN1CCCNCCNCCCNCC1 [AMD3100]
migration of C56C cells towards SDF1 (CXCR4 receptor; antagonist added): blocked

CC1=C(/C=C/C(C)=C/C=C/C(C)=C/C(=O)O)C(C)(C)CCC1 [RA, All-trans retinoic acid, reference compound]
treated cells expressing Wt1, Raldh2 and Tbx20 (Isl1+ IMP (Spl-m) cells; RA 4 μM with Wnt3a and BMP4, immunofluorescence): More than 90% | Erk activation in Isl1+ Spl-m (Isl1+ IMP (Spl-m) cells): activated Erk

Fgf2: fibroblast growth factor 2
transcripts expressed in PE/epicardium (Wt1, Raldh2, Tbx18, Tbx5) (Isl1+ IMP (Spl-m) cells; Fgf2 100 ng/ml after 4 days of Wnt/BMP): dramatic increases | Erk activation in Isl1+ Spl-m (Isl1+ IMP (Spl-m) cells): activated Erk

SDF1: SDF1 cytokine
migration of C56C cells towards cytokine in lower chamber (CXCR4 receptor; 300,000 C56C cells in upper chamber): responsive and migrate towards

VEGF
cells positive for CD31 and VE-cadherin (endothelial cells) [1]: 10-20% | cells positive for SMA and calponin (smooth muscle cells) [1]: 80-90%

B1: Dkk1: Wnt antagonist Dkk1 (protein, UniProt O94907 32-266, looked up)
Dickkopf-related protein 1: TLNSVLNSNAIKNLPPPLGGAAGHPGSAVSAAPGILYPGGNKYQTIDNYQPYPCAEDEECGTDEYCASPTRGGDAGVQICLACRKRRKRCMRHAMCCPGNYCKNGICVSSDQNHFRGEIEETITESFGNDHSTLDGYSRRTTLSSKMYHTKGQEGSVCLRSSDCASGLCCARHFWSKICKPVLKEGQVCTKHRRKGSHGLEIFQRCYCGEGLSCRIQKDHHQASNSSRLHTCQRH
BMP4-dependent differentiation of hESCs without exogenous Wnt3a (WA09 hESCs; Dkk1 150 ng/ml with BMP4 50 ng/ml): blocked

B2: BMP4: bone morphogenic protein 4 (protein, UniProt P12644 293-408, looked up)
Bone morphogenetic protein 4: SPKHHSQRARKKNKNCRRHSLYVDFSDVGWNDWIVAPPGYQAFYCHGDCPFPLADHLNSTNHAIVQTLVNSVNSSIPKACCVPTELSAISMLYLDEYDKVVLKNYQEMVVEGCGCR
differentiation / gene expression changes with single factor alone (WA09 hESCs): promoted differentiation

B3: Wnt3a: wingless (Wnt) protein (protein, UniProt P56704 19-352, looked up)
Protein Wnt-3a: SYPIWWSLAVGPQYSSLGSQPILCASIPGLVPKQLRFCRNYVEIMPSVAEGIKIGIQECQHQFRGRRWNCTTVHDSLAIFGPVLDKATRESAFVHAIASAGVAFAVTRSCAEGTAAICGCSSRHQGSPGKGWKWGGCSEDIEFGGMVSREFADARENRPDARSAMNRHNNEAGRQAIASHMHLKCKCHGLSGSCEVKTCWWSQPDFRAIGDFLKDKYDSASEMVVEKHRESRGWVETLRPRYTYFKVPTERDLVYYEASPNFCEPNPETGSFGTRDRTCNVSSHGIDGCDLLCCGRGHNARAERRREKCRCVFHWCCYVSCQECTRVYDVHTCK
differentiation / gene expression changes with single factor alone (WA09 hESCs): None of the gene expression changes
